Target: D(3) dopamine receptor (Homo sapiens, UniProt P35462)
Test: Ability to displace [125I]-sulpiride from human Dopamine receptor D3, expressed in CHO cells

Chain of D(3) dopamine receptor (P35462 as listed by the source): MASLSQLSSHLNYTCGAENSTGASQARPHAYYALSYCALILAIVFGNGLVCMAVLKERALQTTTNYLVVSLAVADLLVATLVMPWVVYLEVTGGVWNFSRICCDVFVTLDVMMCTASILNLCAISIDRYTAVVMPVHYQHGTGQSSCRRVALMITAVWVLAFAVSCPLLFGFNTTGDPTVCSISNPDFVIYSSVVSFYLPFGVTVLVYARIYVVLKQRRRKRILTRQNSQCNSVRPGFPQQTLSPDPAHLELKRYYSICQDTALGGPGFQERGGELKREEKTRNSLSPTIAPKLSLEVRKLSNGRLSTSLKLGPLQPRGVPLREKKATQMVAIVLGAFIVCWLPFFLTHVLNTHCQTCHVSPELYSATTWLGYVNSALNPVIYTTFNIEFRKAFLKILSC

Ki: 1.3 nM
Compound: CCS(=O)(=O)c1ccc(OC)c(-c2ccc(CN3CCCCCC3c3ccccc3)[nH]2)c1 (stereo unspecified)
